Several values for one entry are separate records, joined by “and”; a condition that tells them apart may be missing. Equal entries are not always repeated.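 Interpolation was linear, between the two tested concentrations surrounding the appropriate level; five concentrations were tested over 48 hours in 96-well plates. The concentration for 50% growth inhibition is given as GI50. TGI: total growth inhibition.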
Assays:
Assay in all cases: NCI anticancer screen, dose series, 48 h
[1] = tested on: A549 NSCLC
[2] = tested on: IGROV1 ovarian
[3] = tested on: M19-MEL melanoma
[4] = tested on: RXF 393 renal
[5] = tested on: SF-268 CNS
[6] = tested on: SF-539 CNS
[7] = tested on: SN12C renal
[8] = tested on: SNB-19 CNS
[9] = tested on: LXFL 529 NSCLC
[10] = tested on: OVCAR-3 ovarian

| Structure (SMILES) | TGI [1] | TGI [2] | TGI [3] [µM] | TGI [4] | TGI [5] | TGI [6] | TGI [7] | TGI [8] | TGI [9] [µM] | TGI [10] | GI50 [1] | GI50 [2] | GI50 [10] | GI50 [4] | GI50 [5] | GI50 [6] | GI50 [7] | GI50 [8] |
| --- | --- | --- | --- | --- | --- | --- | --- | --- | --- | --- | --- | --- | --- | --- | --- | --- | --- | --- |
| C[N+](C)(C)CC(=O)N/N=C/c1oc(-c2cccc([N+](=O)[O-])c2)c(-c2cccc([N+](=O)[O-])c2)c1[N+](=O)[O-] | > 100 µM | > 100 µM | > 100 | > 100 µM | > 100 µM | > 100 µM | > 100 µM | > 100 µM |  |  |  |  |  |  |  |  |  |  |
| Cc1nn2c(=O)n(-c3cccc(-n4nnc5c(-c6ccccc6)c(C)nn5c4=O)c3C)nnc2c1-c1ccccc1 | > 100 µM | > 100 µM | > 100 | > 100 µM | > 100 µM | 64 µM | 36.5 µM | > 100 µM | > 100 | 44.3 µM |  |  |  |  |  |  |  |  |
| CN(C(=O)C12C3C4C1C1C2C3C41C(=O)N(C)C(C)(C)C)C(C)(C)C (stereo not drawn) | > 50 µM | > 50 µM | > 50 |  | > 50 µM | > 50 µM | > 50 µM | > 50 µM | > 50 | > 50 µM |  |  |  |  |  |  |  |  |
| O=C(Cc1nc2ccc(C(=O)c3ccccc3)cc2[nH]c1=O)C(=O)Nc1ccc(C(F)(F)F)cc1[N+](=O)[O-] | > 100 µM | > 100 µM | > 100 |  | > 100 µM | > 100 µM | > 100 µM | > 100 µM | > 100 | > 100 µM |  |  |  |  |  |  |  |  |
| Cc1ccc(SC2C(C)(C)N(C(C)C)P2(=O)N(C(C)C)C(C)C)cc1 (stereo not drawn) | > 70.8 µM | > 100 µM | > 86.6 |  | > 100 µM | > 100 µM | > 100 µM | > 100 µM | > 100 | > 100 µM |  |  |  |  |  |  |  |  |
| CC(C)(C)C1CCP(=O)(c2ccccc2)CC1 (stereo not drawn) | > 100 µM | > 100 µM | > 100 | > 100 µM |  | > 100 µM | > 100 µM | > 100 µM | > 100 | > 100 µM |  |  |  |  |  |  |  |  |
| Cc1cc(NS(=O)(=O)c2ccc(NC(=O)COc3ccc(-c4cc5ccccc5[nH]4)cc3)cc2)no1 | 6.39 µM | 4.41 µM |  | 2.6 µM | 7.74 µM | 4.61 µM | 10.4 µM | 8.69 µM |  | 3.75 µM | 2.18 µM | 2.02 µM | 1.72 µM | 1.24 µM | 2.33 µM | 1.98 µM | 2.24 µM | 2.23 µM |
| Cc1cc2oc(=O)c(Cl)c(Cl)c2c(C)c1Cl | 37.3 µM | 15.8 µM |  | 6.03 µM | 11.5 µM | 21.4 µM | 24.5 µM | 24.6 µM |  | 7.1 µM |  |  |  |  |  |  |  |  |
| CC1=C(C(=O)Nc2cccc(C(F)(F)F)c2)C(c2ccccc2F)C(C(=O)Nc2cccc(C(F)(F)F)c2)=C(C)N1 | 19.7 µM | 43.7 µM | 21.3 | 15.5 µM |  | 23.8 µM | 23.9 µM | 25.8 µM | 19.2 | 17.8 µM |  |  |  |  |  |  |  |  |
| CC(=O)Nc1cc(C(c2ccccc2)c2ccccc2)cc(C(c2ccccc2)c2ccccc2)c1C | > 100 µM | > 100 µM |  | > 100 µM | > 100 µM | > 100 µM | > 100 µM | > 100 µM |  | > 100 µM | 4.95 µM | 32.5 µM | 7.33 µM | 27.5 µM | 8.2 µM | > 100 µM | 27.5 µM | > 100 µM |
| CC(=O)C(CN(C)Cc1ccccc1)C(c1ccccc1)c1c(O)c2ccccc2oc1=O (stereo not drawn) | > 100 µM | > 100 µM | > 100 | > 100 µM | > 100 µM | > 100 µM | > 100 µM | 93.2 µM | > 100 |  |  |  |  |  |  |  |  |  |
| COc1ccc2oc(-c3cc4cc(OC)ccc4o3)cc2c1 | > 100 µM | > 100 µM |  | > 100 µM | > 100 µM |  | > 100 µM | > 100 µM | > 100 | > 100 µM |  |  |  |  |  |  |  |  |
| O=C(O)CC1C(=O)OC2C3COC(=O)c4cc(O)c(O)c(O)c4-c4c(cc(O)c(O)c4O)C(=O)OC2C(OC(=O)c2cc(O)c(O)c4c2C1C(O)C(=O)O4)C(OC(=O)c1cc(O)c(O)c(O)c1)O3 (stereo not drawn) | > 100 µM | > 100 µM |  | > 100 µM | > 100 µM | > 100 µM | 36.3 µM | > 100 µM |  | 72.8 µM |  |  |  |  |  |  |  |  |
| CCCCCCCCn1ccc2cc(NC(=O)Cn3cc(CN4CCC(C)CC4)nn3)ccc21 | 3.4 µM | 2.96 µM |  | 3.08 µM | 3.53 µM | 3.08 µM | 3.16 µM | 3.42 µM |  | 3.19 µM | 1.74 µM | 1.43 µM | 1.71 µM | 1.5 µM | 1.82 µM | 1.7 µM | 1.68 µM | 1.76 µM |
| O=C(O)/C(=C/c1ccccc1[N+](=O)[O-])c1cccs1 | > 100 µM | > 100 µM | > 100 |  | > 100 µM | > 100 µM | > 100 µM | > 100 µM | > 100 | > 100 µM |  |  |  |  |  |  |  |  |
| O=C1c2ccccc2C(=O)c2c(NCCNCCO)ccc(NCCNCCO)c21 | 6.92 µM and 9.37 µM and 6.34 µM | 10.3 µM and 9.84 µM |  | 2 µM and 10.8 µM and 7.68 µM | 2.61 µM and 3.34 µM and 3.76 µM | 3.42 µM and 6.7 µM and 4.07 µM | 4.57 µM and 12.5 µM and 9.84 µM | 4.19 µM and 9.76 µM and 5.58 µM |  | 7.71 µM and 11.5 µM and 11 µM | 0.195 µM and 0.183 µM and 0.123 µM | 1.14 µM and 0.55 µM and 0.811 µM | 2.41 µM and 2.86 µM and 2.72 µM | 0.322 µM and 2.43 µM and 1.92 µM | 0.276 µM and 0.257 µM and 0.36 µM | 0.864 µM and 1.04 µM and 0.947 µM | 0.183 µM and 0.358 µM and 0.292 µM | 0.372 µM and 0.625 µM and 0.584 µM |
| Cc1ccc(C2NC(=S)N3C(c4ccc(C)cc4)NC(=S)N23)cc1 (stereo not drawn) | 20.1 µM | 22 µM |  | 14.1 µM | 22.1 µM | 13.7 µM | 19.4 µM | 17.7 µM |  | 11.5 µM | 5.82 µM | 8.5 µM | 3.26 µM | 3.27 µM | 7.78 µM | 4.12 µM | 5.88 µM | 5.06 µM |
| O=C1c2ccccc2-c2c1c1c(O)cccc1n2CCCc1ccccc1 | > 100 µM | > 100 µM |  | 68.5 µM | > 100 µM | > 100 µM | 67.9 µM | > 100 µM |  | > 100 µM | 9.61 µM | 17.1 µM | 9.82 µM | 5.87 µM | 88.5 µM | 23.1 µM | 14 µM | 85.2 µM |
| O=C(O)CN(CC(=O)O)c1ccccc1 | > 100 µM | > 100 µM |  | > 100 µM | > 100 µM | > 100 µM | > 100 µM | > 100 µM |  | > 100 µM |  |  |  |  |  |  |  |  |
| CC(=O)n1cc(CC(C)O)c(=O)[nH]c1=O (stereo not drawn) | > 100 µM | > 100 µM | > 100 |  | > 100 µM | > 100 µM | 31.2 µM | > 100 µM | > 100 | > 100 µM |  |  |  |  |  |  |  |  |
